The target of assay [1] is Serine/threonine-protein kinase/endoribonuclease IRE1 (Homo sapiens, UniProt O75460).
Assay [2] has as its target T1, Ras-related protein Rab-10 (Homo sapiens, UniProt P61026).
T1 sequence (P61026 whole entry): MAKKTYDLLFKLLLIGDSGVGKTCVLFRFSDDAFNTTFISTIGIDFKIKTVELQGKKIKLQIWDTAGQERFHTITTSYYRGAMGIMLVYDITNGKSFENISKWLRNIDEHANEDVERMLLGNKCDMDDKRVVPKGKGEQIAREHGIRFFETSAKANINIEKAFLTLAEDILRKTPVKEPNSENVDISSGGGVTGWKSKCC

The target in assay [3] is Cyclin-dependent kinase 4 (Homo sapiens, UniProt P11802).
Sequence of Cyclin-dependent kinase 4 (P11802 whole entry, the tested form may be a part): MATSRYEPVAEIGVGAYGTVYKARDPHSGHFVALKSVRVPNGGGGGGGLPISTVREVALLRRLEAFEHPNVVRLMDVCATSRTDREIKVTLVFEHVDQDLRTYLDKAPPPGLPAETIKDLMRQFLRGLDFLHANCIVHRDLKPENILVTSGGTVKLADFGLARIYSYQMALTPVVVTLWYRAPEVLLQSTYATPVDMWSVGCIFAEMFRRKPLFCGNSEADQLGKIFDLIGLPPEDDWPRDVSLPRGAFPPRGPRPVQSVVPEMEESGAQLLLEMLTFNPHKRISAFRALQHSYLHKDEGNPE
Assay [4] addresses T2, Discoidin domain-containing receptor 2 (Homo sapiens, UniProt Q16832).
T2 sequence (Q16832 whole entry): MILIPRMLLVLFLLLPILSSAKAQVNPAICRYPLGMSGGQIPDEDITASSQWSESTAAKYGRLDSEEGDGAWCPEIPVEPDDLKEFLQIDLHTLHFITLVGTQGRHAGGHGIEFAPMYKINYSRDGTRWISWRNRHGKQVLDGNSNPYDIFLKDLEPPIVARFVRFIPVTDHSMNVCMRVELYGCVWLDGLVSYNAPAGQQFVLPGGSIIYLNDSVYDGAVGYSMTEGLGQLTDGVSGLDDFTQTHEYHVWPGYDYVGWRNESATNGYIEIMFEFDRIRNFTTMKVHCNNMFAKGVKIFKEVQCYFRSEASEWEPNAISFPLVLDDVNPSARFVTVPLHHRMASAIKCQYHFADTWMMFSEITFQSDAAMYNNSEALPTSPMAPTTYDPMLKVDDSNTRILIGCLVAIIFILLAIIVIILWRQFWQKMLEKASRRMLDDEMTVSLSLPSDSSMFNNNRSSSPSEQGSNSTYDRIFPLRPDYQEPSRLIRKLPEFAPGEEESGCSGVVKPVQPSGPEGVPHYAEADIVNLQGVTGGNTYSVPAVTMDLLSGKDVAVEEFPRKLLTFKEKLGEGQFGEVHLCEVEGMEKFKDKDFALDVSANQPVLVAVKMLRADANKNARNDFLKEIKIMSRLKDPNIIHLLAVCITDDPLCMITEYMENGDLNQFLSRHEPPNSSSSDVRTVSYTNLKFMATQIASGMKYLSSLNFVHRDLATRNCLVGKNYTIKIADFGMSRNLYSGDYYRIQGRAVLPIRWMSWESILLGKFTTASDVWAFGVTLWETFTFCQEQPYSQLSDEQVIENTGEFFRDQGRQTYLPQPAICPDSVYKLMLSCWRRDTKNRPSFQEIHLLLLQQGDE

The target of assay [5] is T3, Heme oxygenase 2 (Homo sapiens, UniProt P30519).
T3 sequence (P30519 whole entry): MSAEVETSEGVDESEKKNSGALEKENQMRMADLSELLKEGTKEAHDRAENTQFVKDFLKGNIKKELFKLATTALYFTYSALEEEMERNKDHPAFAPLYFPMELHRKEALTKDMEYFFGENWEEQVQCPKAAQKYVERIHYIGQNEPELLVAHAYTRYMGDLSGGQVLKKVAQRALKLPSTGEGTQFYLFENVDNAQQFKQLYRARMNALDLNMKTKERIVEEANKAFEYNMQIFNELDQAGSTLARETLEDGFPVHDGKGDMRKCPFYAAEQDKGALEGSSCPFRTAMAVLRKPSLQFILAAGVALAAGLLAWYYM

The target in assay [6] is cAMP-dependent protein kinase catalytic subunit beta (Homo sapiens, UniProt P22694).
In assay [7] the target is Tyrosine-protein kinase FRK (Homo sapiens, UniProt P42685).
Sequence of Tyrosine-protein kinase FRK (P42685 whole entry): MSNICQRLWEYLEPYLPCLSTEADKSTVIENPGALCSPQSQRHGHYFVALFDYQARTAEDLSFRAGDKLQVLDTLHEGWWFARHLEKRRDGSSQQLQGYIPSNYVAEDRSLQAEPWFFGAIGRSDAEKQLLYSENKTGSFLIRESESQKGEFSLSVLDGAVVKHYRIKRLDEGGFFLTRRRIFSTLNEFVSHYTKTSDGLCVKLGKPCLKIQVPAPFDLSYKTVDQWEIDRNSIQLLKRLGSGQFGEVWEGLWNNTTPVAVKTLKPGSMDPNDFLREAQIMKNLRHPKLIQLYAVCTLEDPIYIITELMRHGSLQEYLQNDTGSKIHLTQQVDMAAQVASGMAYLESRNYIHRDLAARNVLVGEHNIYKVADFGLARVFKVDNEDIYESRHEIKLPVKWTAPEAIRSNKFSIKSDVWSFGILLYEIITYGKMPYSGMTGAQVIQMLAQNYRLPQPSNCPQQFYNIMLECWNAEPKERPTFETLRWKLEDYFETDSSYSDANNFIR
In assay [8] the target is T4, Cytochrome c1, heme protein, mitochondrial (Homo sapiens, UniProt P08574).
T4 sequence (P08574 whole entry): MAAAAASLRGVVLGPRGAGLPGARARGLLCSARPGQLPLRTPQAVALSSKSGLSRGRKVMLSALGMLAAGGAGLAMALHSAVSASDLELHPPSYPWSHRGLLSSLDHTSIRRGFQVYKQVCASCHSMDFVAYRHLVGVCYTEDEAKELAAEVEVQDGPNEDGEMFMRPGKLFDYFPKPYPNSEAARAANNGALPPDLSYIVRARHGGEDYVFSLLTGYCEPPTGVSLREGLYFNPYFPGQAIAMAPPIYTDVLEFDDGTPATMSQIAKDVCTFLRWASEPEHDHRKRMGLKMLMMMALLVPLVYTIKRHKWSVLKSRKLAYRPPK

SMILES strings stand for the structures. Active and inactive are the calls of the source. A value given as a limit tells only on which side of the number the result lay.
Also: in the data inactive means no Kd found up to 30 µM.

Sequence of Serine/threonine-protein kinase/endoribonuclease IRE1 (O75460 whole entry): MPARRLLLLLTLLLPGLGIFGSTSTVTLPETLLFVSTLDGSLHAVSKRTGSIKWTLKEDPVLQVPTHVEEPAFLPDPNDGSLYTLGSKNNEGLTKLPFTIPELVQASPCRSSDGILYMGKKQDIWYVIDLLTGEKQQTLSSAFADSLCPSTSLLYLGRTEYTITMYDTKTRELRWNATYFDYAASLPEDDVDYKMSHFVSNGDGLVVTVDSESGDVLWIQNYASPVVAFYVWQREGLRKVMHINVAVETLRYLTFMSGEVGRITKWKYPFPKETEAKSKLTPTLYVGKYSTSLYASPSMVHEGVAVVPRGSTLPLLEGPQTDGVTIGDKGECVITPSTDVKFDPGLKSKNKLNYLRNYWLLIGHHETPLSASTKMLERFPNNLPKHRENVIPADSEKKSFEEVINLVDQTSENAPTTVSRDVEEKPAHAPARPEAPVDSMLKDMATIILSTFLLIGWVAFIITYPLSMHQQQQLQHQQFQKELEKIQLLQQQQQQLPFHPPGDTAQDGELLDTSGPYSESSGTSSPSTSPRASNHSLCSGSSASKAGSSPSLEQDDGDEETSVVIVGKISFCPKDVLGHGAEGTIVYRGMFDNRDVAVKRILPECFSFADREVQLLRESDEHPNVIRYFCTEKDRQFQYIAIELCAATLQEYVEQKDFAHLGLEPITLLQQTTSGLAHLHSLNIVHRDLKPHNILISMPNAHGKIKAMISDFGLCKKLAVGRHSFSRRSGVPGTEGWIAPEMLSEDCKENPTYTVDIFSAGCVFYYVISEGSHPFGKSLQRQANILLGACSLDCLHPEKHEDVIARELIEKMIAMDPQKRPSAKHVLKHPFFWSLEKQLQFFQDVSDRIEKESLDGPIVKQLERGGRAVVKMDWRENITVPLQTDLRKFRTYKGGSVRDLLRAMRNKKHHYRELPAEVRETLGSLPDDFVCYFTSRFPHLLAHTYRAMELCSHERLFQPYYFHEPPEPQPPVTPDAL

Take `Cn1c(=O)c(F)c(Nc2ccc(I)cc2F)c2c(=O)n(C[C@@H](O)CO)cnc21` [TAK-733]: the Kd in assay [1], in assay [2], in assay [3], in assay [4], in assay [5] and in assay [6] was > 30 µM (inactive) in each case. The Kd in assay [7] and in assay [8] was > 30 µM (inactive) throughout.
For the compound `COc1cc(Nc2ncc(F)c(Nc3ccc4c(n3)N(COP(=O)(O)O)C(=O)C(C)(C)O4)n2)cc(OC)c1OC` [FOSTAMATINIB], the Kd in assay [1], in assay [2], in assay [3], in assay [4], in assay [5] and in assay [6] was > 30 µM (inactive) in each case. Also, the Kd in assay [7] and in assay [8] was > 30 µM (inactive) in each case.
Regarding `C#Cc1cccc(Nc2ncnc3cc4c(cc23)OCCOCCOCCO4)c1` [ICOTINIB], the Kd in assay [1], in assay [2], in assay [3], in assay [4], in assay [5] and in assay [6] was > 30 µM (inactive) throughout. For the same compound, the Kd in assay [7] and in assay [8] was > 30 µM (inactive) throughout.
On to `Cn1cc(-c2[nH]c3cc(NC(=O)[C@H](N)C4CCCCC4)cc4c3c2C=NNC4=O)cn1`, for which the Kd in assay [1], in assay [2], in assay [3], in assay [4], in assay [5] and in assay [6] was > 30 µM (inactive) each time. For the same compound, the Kd in assay [7] and in assay [8] was > 30 µM (inactive) throughout.
As for `FC(F)(F)c1ccc(CNc2ccc(Cc3c[nH]c4ncc(Cl)cc34)cn2)cn1` [PEXIDARTINIB], the Kd in assay [1], in assay [2], in assay [3], in assay [4], in assay [5] and in assay [6] was > 30 µM (inactive) each time. Besides, the Kd in assay [7] and in assay [8] was > 30 µM (inactive) throughout.
With `CC(C)(O)CC(=O)NCCn1ccc2ncnc(Nc3ccc(Oc4cccc(C(F)(F)F)c4)c(Cl)c3)c21` [TAK-285], the Kd in assay [1], in assay [2], in assay [3], in assay [4], in assay [5] and in assay [6] was > 30 µM (inactive) each time. Also, the Kd in assay [7] and in assay [8] was > 30 µM (inactive) each time.
Turning to `Cc1cc(C(=O)Nc2cc(Oc3ccc4nc(NC(=O)C5CC5)cn4n3)ccc2C)n(C)n1` [TAK-593], the Kd in assay [1] is > 30 µM (inactive); in assay [2], > 30 µM (inactive); in assay [3] it was > 30 µM (inactive); in assay [4] it was 19.3 µM (active); in assay [5] it was > 30 µM (inactive); in assay [6] it was > 30 µM (inactive). The Kd in assay [7] and in assay [8] was > 30 µM (inactive) in each case.
Regarding `C=CCn1c(=O)c2cnc(Nc3ccc(N4CCN(C)CC4)cc3)nc2n1-c1cccc(C(C)(C)O)n1` [ADAVOSERTIB], the Kd in assay [1], in assay [2], in assay [3], in assay [4], in assay [5] and in assay [6] was > 30 µM (inactive) each time. Also, the Kd in assay [7] and in assay [8] was > 30 µM (inactive) throughout.
With `CCc1nc(C(N)=O)c(Nc2ccc(N3CCC(N4CCN(C)CC4)CC3)c(OC)c2)nc1NC1CCOCC1` [GILTERITINIB], the Kd in assay [1] is > 30 µM (inactive); in assay [2], > 30 µM (inactive); in assay [3], 1.95 µM (active); in assay [4], > 30 µM (inactive); in assay [5], > 30 µM (inactive); in assay [6], > 30 µM (inactive). Besides, the Kd is > 30 µM (inactive) in assay [7] and 0.202 µM in assay [8].
With `NC[C@@](O)(c1ccc(Cl)cc1)c1ccc(-c2cn[nH]c2)cc1` [AT-13148], the Kd in assay [1] was > 30 µM (inactive); in assay [2], > 30 µM (inactive); in assay [3], > 30 µM (inactive); in assay [4], > 30 µM (inactive); in assay [5], > 30 µM (inactive); in assay [6], 0.014 µM (active). Also, the Kd in assay [7] and in assay [8] was > 30 µM (inactive) throughout.
Regarding `COc1cc(F)c(F)c(Nc2ccc(I)cc2F)c1NS(=O)(=O)C1(C[C@H](O)CO)CC1` [REFAMETINIB], the Kd in assay [1], in assay [2], in assay [3], in assay [4], in assay [5] and in assay [6] was > 30 µM (inactive) in each case. The Kd in assay [7] and in assay [8] was > 30 µM (inactive) each time.
Consider `COc1cc2ncnc3c2cc1OCCCCCN(C)Cc1ccc(Br)cc1N3` [JNJ-26483327], for which the Kd in assay [1], in assay [2], in assay [3], in assay [4], in assay [5] and in assay [6] was > 30 µM (inactive) in each case. Further, the Kd in assay [7] and in assay [8] was > 30 µM (inactive) each time.
As to `CCc1cc2c(cc1N1CCC(N3CCOCC3)CC1)C(C)(C)c1[nH]c3cc(C#N)ccc3c1C2=O` [ALECTINIB], the Kd in assay [1], in assay [2], in assay [3], in assay [4], in assay [5] and in assay [6] was > 30 µM (inactive) in each case. For the same compound, the Kd in assay [7] and in assay [8] was > 30 µM (inactive) each time.
Take `Cc1c(NC(=O)OC[C@@H]2COCCN2)cn2ncnc(Nc3ccc4c(cnn4Cc4cccc(F)c4)c3)c12` [AC-480]: the Kd in assay [1], in assay [2], in assay [3], in assay [4], in assay [5] and in assay [6] was > 30 µM (inactive) in each case. Further, the Kd in assay [7] and in assay [8] was > 30 µM (inactive) each time.
Take `Cc1cc(-c2cc(OC(=O)c3ccccc3)ccc2Cl)cc2nnc(Nc3ccc(OCCN4CCCC4)cc3)nc12` [TG100-801]: the Kd in assay [1], in assay [2], in assay [3], in assay [4], in assay [5] and in assay [6] was > 30 µM (inactive) in each case. Further, the Kd in assay [7] and in assay [8] was > 30 µM (inactive) in each case.

The record behind these values is ChEMBL document CHEMBL3991601, “The target landscape of clinical kinase drugs” (Science, 2017).
